Experimental findings from patent US20240239784A1, “INDOLE COMPOUNDS AND METHODS OF USE” (GENZYME CORPORATION, priority 2021, published 2024) are described below.

The test system of the assay is NBD1. The experiment in a line: Aggregation analysis of NBD1 thermal stability by differential static light scattering (DSLS). The note with it: compound at 100 μM; ΔTagg versus DMSO control. Format: binding, Human. As to the method: Purified recombinant NBD1 was produced using previously described methods (A. Schmidt, J. L. Mendoza, P. J. Thomas (2011) Biochemical and Biophysical Approaches to Probe CFTR Structure (365-376) M. D. Amaral, K. Kunzelmann (eds.), Cysic Fibrosis, Methods in Molecular Biology 741, Springer Science+Business Media). The effect of test compounds on thermal stability of NBD1 was evaluated by differential static light scattering (DSLS) using the Harbinger Stargazer-384 instrument (Epiphyte Three, Toronto, Canada). Test compounds were dissolved and diluted to desired concentrations in 100% DMSO. The compounds or DMSO controls (100 nL) were stamped into wells of a […] low volume optical plate (Corning Inc., Corning, NY) using the Echo 555 acoustic liquid handler (Labcyte Inc., San Jose, CA).
NBD1 protein was diluted to 0.2 mg/ml in S200 buffer (50 mM Tris-HCl, 150 mM NaCl, 5 mM MgCl2, 2 mM ATP, 2 mM DTT, pH7.6) containing 1% glycerol. 10 uL of protein solution was aliquoted into the 384-well plate harboring the test compounds and 10 uL mineral oil was overlayed onto the protein solution, using the epMotion robotic liquid handler (Eppendorf North America, Hauppauge, NY). After placing into the Stargazer instrument, the plate was heated at 1° C. per minute to 70° C. Images were captured from 25° C. to 70° C. every 0.5° C. At the end of the experiment run, instrument software integrated image files and analyzed data automatically. A […] regression curve was generated for each well, representing the increase in light scattering over time. A temperature of aggregation (Tagg) was calculated based on the inflection point of the curve. To better compare data across experiments the average Tagg for DMSO control wells was calculated and subtracted from values for wells containing compounds to obtain a “ΔTagg” value. These ΔTagg values reflect stabilizing efficacy of the compounds.
Consider `CC(O)(c1ccccc1)c1cnc(-c2cccc(Oc3c(F)cc4[nH]ccc4c3C=C3SC(=O)NC3=O)c2)[nH]1` (stereo not shown) [Example 3, 5-((6-fluoro-5-(3-(5-(1-hydroxy-1-phenylethyl)-1H-imidazol-2-yl)phenoxy)-1H-indol-4-yl)methylene)thiazolidine-2,4-dione], for which the “DSLS NBD1/3D Human Stability delta-T (° C.) @ 100 (μM)” value (“DSLS NBD1/3D Human Stability delta-T” below) is “A (T ≥8° C.)”.
As for `CC(C)(O)c1nc(-c2cc(Oc3c(F)cc4[nH]ccc4c3S(C)(=O)=O)ccc2F)[nH]c1Cc1ccccc1` [Example 79, 2-(5-Benzyl-2-(2-fluoro-5-((6-fluoro-4-(methylsulfonyl)-1H-indol-5-yl)oxy)phenyl)-1H-imidazol-4-yl)propan-2-ol], the entry is “B (4-8° C.)”; as for `O=C(Cc1c(Oc2cccc(-c3nnc(Cc4ccccc4)[nH]3)c2)ccc2[nH]ccc12)NS(=O)(=O)C1CC1` [Example 12, 2-(5-(3-(5-Benzyl-4H-1,2,4-triazol-3-yl)phenoxy)-1H-indol-4-yl)-N-(cyclopropylsulfonyl)acetamide], “A (T ≥8° C.)”; as for `CC(O)(c1ccccc1)c1c[nH]c(-c2cc(Oc3c(F)cc4[nH]ccc4c3CC(F)F)ccc2F)n1` (stereo not shown) [Example 25, 1-(2-(5-((4-(2,2-Difluoroethyl)-6-fluoro-1H-indol-5-yl)oxy)-2-fluorophenyl)-1H-imidazol-4-yl)-1-phenylethan-1-ol], “B (4-8° C.)”.
Turning to `NCc1nc(-c2cc(Oc3c(F)cc4[nH]ccc4c3F)ccc2F)[nH]c1Cc1ccccc1` [Example 80, (5-Benzyl-2-(5-((4,6-difluoro-1H-indol-5-yl)oxy)-2-fluorophenyl)-1H-imidazol-4-yl)methanamine], the “DSLS NBD1/3D Human Stability delta-T” value is on record as “B (4-8° C.)”.
As to `CC(O)(c1ccccc1)c1cnc(-c2cccc(Oc3ccc4[nH]ccc4n3)c2)[nH]1` (stereo not shown) [Example 53, 1-(2-(3-((1H-Pyrrolo[3,2-b]pyridin-5-yl)oxy)phenyl)-1H-imidazol-5-yl)-1-phenylethan-1-ol], the “DSLS NBD1/3D Human Stability delta-T” value is given as “B (4-8° C.)”.
Regarding `CS(=O)(=O)NC(=O)Cc1c(Oc2cccc(-c3nnc(Cc4ccccc4)[nH]3)c2)ccc2[nH]ccc12` [Example 56, 2-(5-(3-(5-Benzyl-4H-1,2,4-triazol-3-yl)phenoxy)-1H-indol-4-yl)-N-(methylsulfonyl)acetamide], the “DSLS NBD1/3D Human Stability delta-T” value is “A (T ≥8° C.)”.
The value for `CC(O)(c1ccccc1)c1cnc(-c2cccc(Oc3ccc4[nH]ccc4c3S(C)(=O)=O)c2)[nH]1` (racemic) [Example 63, 1-(2-(3-((4-(methylsulfonyl)-1H-indol-5-yl)oxy)phenyl)-1H-imidazol-5-yl)-1-phenylethan-1-ol] was “A (T ≥8° C.)”.
In the case of `Cc1c(Oc2ccc(F)c(-c3ncc(C(C)(CCC(=O)O)c4ccccc4)[nH]3)c2)c(F)cc2[nH]ccc12` (stereo not shown) [Example 13, 4-(2-(2-Fluoro-5-((6-fluoro-4-methyl-1H-indol-5-yl)oxy)phenyl)-1H-imidazol-5-yl)-4-phenylpentanoic acid], the “DSLS NBD1/3D Human Stability delta-T” value is “B (4-8° C.)”.
`CNC(=O)CNC(=O)c1c(Oc2cccc(-c3ncc(C(O)c4ccccc4)[nH]3)c2)ccc2[nH]ncc12` (stereo not shown) [Example 28, 5-(3-(5-(Hydroxy(phenyl)methyl)-1H-imidazol-2-yl)phenoxy)-N-(2-(methylamino)-2-oxoethyl)-1H-indazole-4-carboxamide]: the “DSLS NBD1/3D Human Stability delta-T” value is recorded as “B (4-8° C.)”.
For `C[S+]([O-])c1c(Oc2cccc(-c3ncc(C(O)c4ccccc4)[nH]3)c2)ccc2[nH]ccc12` (stereo not shown) [Example 55, (2-(3-((4-(Methylsulfinyl)-1H-indol-5-yl)oxy)phenyl)-1H-imidazol-5-yl)(phenyl)methanol], the “DSLS NBD1/3D Human Stability delta-T” value was “B (4-8° C.)”.
As for `OCc1c(Oc2cccc(-c3ncn(Cc4ccccc4)n3)c2)ccc2[nH]ccc12` [Example 23, (5-(3-(1-Benzyl-1H-1,2,4-triazol-3-yl)phenoxy)-1H-indol-4-yl)methanol], the entry is “B (4-8° C.)”; as for `c1ccc(Cc2nnc(-c3cccc(Oc4ccc5[nH]cc6c5c4CNC6)c3)[nH]2)cc1` [Example 43, 6-(3-(5-Benzyl-4H-1,2,4-triazol-3-yl)phenoxy)-1,3,4,5-tetrahydropyrrolo[4,3,2-de]isoquinoline], “C (≤4° C.)”.
The value for `CC(O)(c1ccccc1)c1cnc(-c2cccc(Oc3c(F)cc4[nH]ccc4c3S(C)(=O)=O)c2)[nH]1` (stereo not shown) [Example 5, 1-(2-(3-((6-Fluoro-4-(methylsulfonyl)-1H-indol-5-yl)oxy)phenyl)-1H-imidazol-5-yl)-1-phenylethan-1-ol] was “A (T ≥8° C.)”; that for `COC(=O)c1c(Oc2cccc(-c3ncc(C(C)(O)c4ccccc4)[nH]3)c2)c(F)cc2[nH]ccc12` (stereo not shown) [Example 7, Methyl 6-fluoro-5-(3-(5-(1-hydroxy-1-phenylethyl)-1H-imidazol-2-yl)phenoxy)-1H-indole-4-carboxylate] was “B (4-8° C.)”.
Take `O=C1NCc2c[nH]c3ccc(Oc4cccc(-c5nnc(Cc6ccccc6)[nH]5)c4)c1c23` [Example 42, 6-(3-(5-Benzyl-4H-1,2,4-triazol-3-yl)phenoxy)-3,4-dihydropyrrolo[4,3,2-de]isoquinolin-5(1H)-one]: the “DSLS NBD1/3D Human Stability delta-T” value is on record as “C (≤4° C.)”.
As for `OCc1c(Oc2cccc(-c3nc(Cc4ccccc4)cs3)c2)ccc2[nH]ccc12` [Example 48, (5-(3-(4-Benzylthiazol-2-yl)phenoxy)-1H-indol-4-yl)methanol], the “DSLS NBD1/3D Human Stability delta-T” value is “C (≤4° C.)”.
As for `CC(C)(c1ccccc1)c1cnc(-c2cc(Oc3c(F)cc4[nH]ccc4c3CCS(N)(=O)=O)ccc2F)[nH]1` [Example 75, 2-(6-Fluoro-5-(4-fluoro-3-(5-(2-phenylpropan-2-yl)-1H-imidazol-2-yl)phenoxy)-1H-indol-4-yl)ethane-1-sulfonamide], the entry is “B (4-8° C.)”.
Turning to `c1ccc(Cc2nnc(-c3cncc(Oc4ccc5[nH]ccc5c4)c3)[nH]2)cc1` [Example 29, 5-((5-(5-Benzyl-4H-1,2,4-triazol-3-yl)pyridin-3-yl)oxy)-1H-indole], the “DSLS NBD1/3D Human Stability delta-T” value is “C (≤4° C.)”.
The value for `CC(O)(c1ccccc1)c1cnc(-c2cccc(Oc3ccc4[nH]ccc4c3S(C)(=O)=O)c2)[nH]1` (single isomer, unassigned) [Example 63B, 1-(2-(3-((4-(methylsulfonyl)-1H-indol-5-yl)oxy)phenyl)-1H-imidazol-5-yl)-1-phenylethan-1-ol] was “B (4-8° C.)”.
For the compound `CC(C)(c1ccccc1)c1cnc(-c2cc(Oc3c(F)cc4[nH]ccc4c3CCC(=O)O)ccc2F)[nH]1` [Example 10, 3-(6-Fluoro-5-(4-fluoro-3-(5-(2-phenylpropan-2-yl)-1H-imidazol-2-yl)phenoxy)-1H-indol-4-yl)propanoic acid], the “DSLS NBD1/3D Human Stability delta-T” value is on record as “A (T ≥8° C.)”.
The value for `Cn1nc(-c2cccc(Oc3ccc4[nH]ccc4c3C(N)=O)c2)nc1Cc1ccccc1` [Example 57, 5-(3-(5-Benzyl-1-methyl-1H-1,2,4-triazol-3-yl)phenoxy)-1H-indole-4-carboxamide] was “B (4-8° C.)”; that for `Nc1ccc(-c2n[nH]c(Cc3ccccc3)n2)cc1Oc1ccc2[nH]ccc2c1` [Example 49, 2-((1H-Indol-5-yl)oxy)-4-(5-benzyl-1H-1,2,4-triazol-3-yl)aniline] was “B (4-8° C.)”; that for `O=C(O)CCc1c(Oc2cccc(-c3nnc(Cc4ccccc4)[nH]3)c2)ccc2[nH]ccc12` [Example 58, 3-(5-(3-(5-Benzyl-4H-1,2,4-triazol-3-yl)phenoxy)-1H-indol-4-yl)propanoic acid] was “A (T ≥8° C.)”.
As for `O=C(NCC(O)C(F)(F)F)c1c(Oc2cccc(-c3nc(C(O)c4ccccc4)c[nH]3)c2)ccc2[nH]ccc12` (stereo not shown) [Example 83, 5-(3-(4-(Hydroxy(phenyl)methyl)-1H-imidazol-2-yl)phenoxy)-N-(3,3,3-trifluoro-2 hydroxypropyl)-1H-indole-4-carboxamide], the entry is “A (T ≥8° C.)”.
